From patent US12391683B2, “Therapeutic compounds and methods” (Actio Biosciences, Inc., priority 2022, dated 2025)

Columns and labels:
TRPM2 channels = target: T1, TRPM2 channels (Homo sapiens, UniProt O94759); assay: TRP Family FLIPR Assay, TRPM2; type: cell-based; settings: HEK293 cells (transient)
T1 construct: expressed in transfected cells; host or cells: HEK293 (transient)
Experimental: (§1) The compound of Example 5 was tested for selectivity against a panel of Human TRP family ion channels in a TRP Family FLIPR Assay as described below. • 1. TRPC3 channels (human TRPC3 variant 1 gene, expressed in HEK293 cells). • 2. TRPC4 channels (human TRPC4 gene, expressed in HEK293 cells). • 3. TRPC5 channels (human TRPC5 gene, expressed in HEK293 cells). • 4. TRPC6 channels (human TRPC6 gene, expressed in HEK293 cells). • 5. TRPM2 channels (human TRPM2 gene, transiently expressed in HEK293 cells). • 6. TRPM3 channels (human TRPM3 gene, transiently expressed in HEK293 cells). • 7. TRPM4 channels (human TRPM4 gene, expressed in CHO cells). • 8. […]
(§2) Data acquisition was performed via the FLIPR Control software supplied with the FLIPR System (MDS-AT) and data was analyzed using Microsoft Excel (Microsoft Corp., Redmond, WA) or GraphPad Prism. […]
(§3) [formula] where Base is the response at low concentrations of test article, Max is the maximum response at high concentrations, xhalf the EC50, or IC50, the concentration of test article producing either half-maximal activation or inhibition, and rate is the Hill coefficient. […] No assumptions about the fit parameters was made; the fit parameters were determined by the algorithm.
(§4) The effect of each test article was evaluated at eight (8) concentrations: 0.003, 0.01, 0.03, 0.1, 0.3, 1, 3 and 10 μM, n≤4 wells/concentration). […]

TRPC6 channels = target: T2, TRPC6 channels (Homo sapiens, UniProt Q9Y210); assay: TRP Family FLIPR Assay, TRPC6; type: cell-based; settings: HEK293 cells
T2 construct: expressed in transfected cells; host or cells: HEK293
T2 sequence (Q9Y210 1-931): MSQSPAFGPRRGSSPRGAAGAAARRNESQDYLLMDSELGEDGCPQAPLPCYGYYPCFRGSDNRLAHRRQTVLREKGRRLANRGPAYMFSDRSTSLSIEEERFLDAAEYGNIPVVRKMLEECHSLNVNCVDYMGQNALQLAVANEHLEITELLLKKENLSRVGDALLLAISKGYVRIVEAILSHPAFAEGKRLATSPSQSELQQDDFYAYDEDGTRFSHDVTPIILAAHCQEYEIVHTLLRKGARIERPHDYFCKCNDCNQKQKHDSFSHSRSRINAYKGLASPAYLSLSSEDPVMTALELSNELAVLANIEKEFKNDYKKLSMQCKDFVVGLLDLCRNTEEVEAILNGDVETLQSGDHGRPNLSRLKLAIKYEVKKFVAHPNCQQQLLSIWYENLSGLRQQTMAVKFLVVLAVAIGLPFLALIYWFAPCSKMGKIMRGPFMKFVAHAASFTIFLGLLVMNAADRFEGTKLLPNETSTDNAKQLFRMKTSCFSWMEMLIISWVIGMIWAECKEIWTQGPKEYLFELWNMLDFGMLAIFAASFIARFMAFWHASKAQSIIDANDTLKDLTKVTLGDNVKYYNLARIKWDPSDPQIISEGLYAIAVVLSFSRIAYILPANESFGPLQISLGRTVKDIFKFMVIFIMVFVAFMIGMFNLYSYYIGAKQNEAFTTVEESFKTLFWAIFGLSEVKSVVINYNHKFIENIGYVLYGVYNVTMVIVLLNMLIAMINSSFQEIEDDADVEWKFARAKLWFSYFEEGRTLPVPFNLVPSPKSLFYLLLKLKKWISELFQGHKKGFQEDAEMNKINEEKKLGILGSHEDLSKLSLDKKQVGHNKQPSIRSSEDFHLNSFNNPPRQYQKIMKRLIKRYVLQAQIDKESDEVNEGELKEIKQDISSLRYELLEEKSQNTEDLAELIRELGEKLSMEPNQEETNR
Experimental: as §1, §2, §3, §4

T1 sequence (O94759 whole entry): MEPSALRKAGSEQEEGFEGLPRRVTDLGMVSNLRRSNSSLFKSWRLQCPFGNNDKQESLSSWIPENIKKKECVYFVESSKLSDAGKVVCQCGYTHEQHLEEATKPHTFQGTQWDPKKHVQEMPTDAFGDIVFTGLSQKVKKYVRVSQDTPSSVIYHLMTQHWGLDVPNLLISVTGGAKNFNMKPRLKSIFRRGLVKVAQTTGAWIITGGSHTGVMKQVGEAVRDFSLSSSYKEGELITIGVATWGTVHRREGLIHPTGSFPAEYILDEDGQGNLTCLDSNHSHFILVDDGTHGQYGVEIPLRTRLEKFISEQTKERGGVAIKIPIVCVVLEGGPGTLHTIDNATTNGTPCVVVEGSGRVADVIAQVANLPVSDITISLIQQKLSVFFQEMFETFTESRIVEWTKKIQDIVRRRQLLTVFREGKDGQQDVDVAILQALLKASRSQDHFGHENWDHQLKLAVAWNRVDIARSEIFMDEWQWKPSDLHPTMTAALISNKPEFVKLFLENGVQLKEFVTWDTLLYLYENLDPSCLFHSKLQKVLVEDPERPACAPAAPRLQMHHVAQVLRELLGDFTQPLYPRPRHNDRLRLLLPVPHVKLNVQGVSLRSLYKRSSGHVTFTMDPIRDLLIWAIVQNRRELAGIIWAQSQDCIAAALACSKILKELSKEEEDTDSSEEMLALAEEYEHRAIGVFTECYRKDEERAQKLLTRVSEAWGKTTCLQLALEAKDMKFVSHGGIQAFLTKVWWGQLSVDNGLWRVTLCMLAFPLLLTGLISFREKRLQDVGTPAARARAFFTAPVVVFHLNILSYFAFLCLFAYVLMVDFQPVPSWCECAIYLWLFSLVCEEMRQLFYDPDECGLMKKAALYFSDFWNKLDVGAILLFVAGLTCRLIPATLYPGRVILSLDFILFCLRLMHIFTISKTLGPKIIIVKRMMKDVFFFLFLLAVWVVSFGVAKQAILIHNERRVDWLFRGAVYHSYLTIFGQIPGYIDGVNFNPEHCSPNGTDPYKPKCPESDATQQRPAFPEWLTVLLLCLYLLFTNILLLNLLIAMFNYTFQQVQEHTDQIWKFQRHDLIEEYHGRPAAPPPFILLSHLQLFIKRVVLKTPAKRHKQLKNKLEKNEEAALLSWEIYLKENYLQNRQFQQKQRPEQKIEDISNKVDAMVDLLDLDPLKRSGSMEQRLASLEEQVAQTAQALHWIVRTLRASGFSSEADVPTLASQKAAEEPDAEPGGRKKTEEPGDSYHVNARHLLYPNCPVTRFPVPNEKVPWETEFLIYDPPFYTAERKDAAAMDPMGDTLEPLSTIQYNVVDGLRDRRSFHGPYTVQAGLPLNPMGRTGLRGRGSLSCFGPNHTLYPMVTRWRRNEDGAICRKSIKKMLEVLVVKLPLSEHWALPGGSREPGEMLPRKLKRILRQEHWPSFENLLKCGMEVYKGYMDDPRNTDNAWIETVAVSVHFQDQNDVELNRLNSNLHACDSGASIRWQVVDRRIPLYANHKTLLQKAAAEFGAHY

CC(C)(O)c1cnc(N2C[C@@]3(CC[C@@H](F)[C@](C)(Cn4cnc5ccc(C#N)cc54)C3)OC2=O)cn1 (single isomer, unassigned) [Example 5]
> 10 µM: EC50 (TRPM2 channels; agonist mode, vs EMAX of H2O2 333 μM, read-out: EC50 hTRPM2) | IC50 (TRPM2 channels; antagonist mode, activated with 300 μM H2O2, 0.003-10 μM, read-out: IC50 hTRPM2) | EC50 (TRPC6 channels; agonist mode, vs EMAX of Na-ATP 100 μM, read-out: EC50 hTRPC6) | IC50 (TRPC6 channels; antagonist mode, activated with 10 μM Na-ATP, 0.003-10 μM, read-out: IC50 hTRPC6)
